The source of these data is patent publication US10869483B2, “Coniothyrium minitans for use against moss growth” (Bayer CropScience Aktiengesellschaft, priority 2015, dated 2020).

This test relates to haircup moss growth. The experiment in a line: Drench test (greenhouse, moss growth on soil surface). In kind it is in vivo. The note with it: 6.25 kg/ha = 20 μL/mL, 20 mL drench onto soil, 19 weeks, 15° C., 0% = untreated control, 100% = no moss growth. As for the experimental part:
The test was carried out under greenhouse conditions.
120 mL of a mixture of steamed field soil and sand (1:1) was filled into transparent cylindrical vessels 5.5 cm in size.
The test formulation, the product CONTANS®, comprising 1×10^9 spores of the strain Coniothyrium minitans CON/M/91-08, was dissolved in water and diluted with water to the desired concentrations. 20 mL of the made-up solutions were pipetted onto the soil in the vessels.
The vessels were covered with a transparent lid.
The vessels remained in the greenhouse for the next 19 weeks, at 15° C. and at natural light conditions. The lids were opened slightly after approximately 2 weeks, and the soil was watered every 3 weeks and kept moist.
The evaluation was effected by estimating, per vessel, the soil surface area which had in the meantime been covered by growth, predominantly haircup moss growth. 0% means an efficacy which corresponds to that of the untreated control, while an efficacy of 100% means that no moss growth was discernible.

With `CCCCCCCCCC[N+](C)(C)CCCCCCCCCC.[Cl-]` [DDAC-C10, Didecyldimethylammonium chloride with alkyl chain length C10], the Efficacy % was determined as 100%.
